Experimental data: paper PMC8793064, “Bioassay Guided Fractionation of Senna singueana and Its Potential for Development of Poultry Phytogenic Feed Additives” (Frontiers in Veterinary Science, 2022)
Values after ≈ are worked out from the molar mass of the structure shown. Marks after values point to notes of the source that are not given here.

Key:
DPPH free radical assay = conditions: for DPPH IC50: 30 min, 516 nm; for DPPH IC50 obtained after log transformation of data: value in brackets, data not normally distributed
Method: The antioxidant activities of the samples were measured in terms of radical scavenging ability using the stable radical (DPPH) method of Brand-Williams et al. ([12]) with some modifications. Methanol solutions (40 μl) of the samples and positive controls (Trolox and ascorbic acid) at various concentrations (0.1–100 μg/ml) were prepared by serial dilution in a 96 well-microtitre plate. One hundred and sixty (160) μl of DPPH in methanol adjusted to an absorbance between 0.9 and 1.0 was added and the plates were incubated in the dark at room temperature (25°C) for 30 min. Absorbance was measured against a blank with a microtitre plate reader (Epoch, BioTek, United States) at 516 nm. The DPPH scavenging effect was determined using the following formula:
(1) DPPH Scavenging Effect(%)=[(A1-A2/A1)] × 100
Where A1 is the absorbance of the control reaction and A2 is the absorbance in the presence of the sample. Trolox and ascorbic acid were used as controls. The experiments were conducted twice.

[1] = ABTS free-radical-scavenging assay; conditions: for ABTS IC50: 6 min, 734 nm; for ABTS IC50 obtained after log transformation of data: value in brackets, data not normally distributed
Method: The free radical-scavenging activity as a measure of hydrogen donating capacity was determined by using the ABTS cation decolourization method of Re et al. ([16]) with some modifications. ABTS radical solution (7 μM) was prepared by dissolving 1.32 × 10^4 μg of ABTS in 10 ml of 50% methanolic solution and 7.68 × 10^4 μg of potassium persulphate ([…]) in 10 ml of distilled water. The two solutions were mixed together and made up to 200 ml with 50% methanolic solution, and kept in the dark at room temperature, 25°C for 12 h. Prior to running the assay, the ABTS radical solution was diluted with 50% methanolic solution to an absorbance between 0.7 and 0.8 at 734 nm. The samples were serially diluted (40 μl) (0.1–100 μg/ml) in 96 well-microtitre plates and 160 μl of ABTS radical solution was added to each well. The absorbance readings were taken after exactly 6 min of reaction and blanks were prepared using the respective samples without ABTS radical. The scavenging effect was calculated using the following formula:
(2) ABTS Scavenging Effect(%)=[(A1-A2/A1)] × 100
The IC50 values were calculated from a graph plotted as inhibition percentage against the concentration. A Trolox standard curve was drawn by plotting percentage inhibition of the ABTS+ radical against the concentration of Trolox. Data from the test samples were analysed in a similar manner.

[2] = system: three ATCC strains and E. coli clinical strain; assay: MIC by microdilution, stated over the whole panel of strains; format: cell-based
Method: (§1) The four bacterial cultures were prepared by inoculating a single colony from an agar plate into 10 ml of sterilised Mueller-Hinton (MH) broth (Merck, South Africa) and incubating at 37°C in an MRC orbital shaker (150 rpm) incubator (United Scientific, South Africa) for 18 to 20 h prior to the experiment. Following incubation, each bacterial strain was diluted in MH broth (Merck, South Africa) and the absorbance was measured at a wavelength of 560 nm using a spectrophotometer (Epoch microplate reader: BioTek, United States).
(§2) The assay was performed in microtitre plates (Lasec, South Africa) by adding 100 μl of sterile water to all wells. In the first row, 100 μl of extract, fraction or compound were added in triplicate and serially diluted two-fold to the last well, from which 100 μl were then discarded. Gentamicin (Virbac, South Africa) was used as a positive control and a sterility control containing only water was included. This was followed by addition of 100 μl of the bacterial suspension to each well (except for the sterility control). The plates were sealed with parafilm and incubated at 37°C (IncoTherm, Labotec). After 24 h, 40 μl of a 0.2 mg/ml solution of INT was added to each well and the plate further incubated for at least half an hour to ensure adequate colour development. […]

[3] = Qualitative antioxidant activity, TLC sprayed with DPPH; conditions: TLC sprayed with DPPH 0.2% w/v
Method: TLC plates (10 × 20 cm, aluminium-backed, Merck, silica gel 60 F254) were loaded with 10 μl of the crude extract, fraction or compound (re-dissolved to 10 mg/ml) and dried before being developed in two mobile phase systems (CEF and EMW). […] A change of colour from the DPPH purple background to yellow indicated the presence of antioxidant compounds ([13]).

[4] = system: Escherichia coli (ATCC 25922); assay: MIC by serial two-fold microdilution; format: cell-based; conditions: ATCC25922, 24 h
Method: as §1
(§3) The assay was performed in microtitre plates (Lasec, South Africa) by adding 100 μl of sterile water to all wells. In the first row, 100 μl of extract, fraction or compound were added in triplicate and serially diluted two-fold to the last well, from which 100 μl were then discarded. Gentamicin (Virbac, South Africa) was used as a positive control and a sterility control containing only water was included. This was followed by addition of 100 μl of the bacterial suspension to each well (except for the sterility control). The plates were sealed with parafilm and incubated at 37°C (IncoTherm, Labotec). After 24 h, 40 μl of a 0.2 mg/ml solution of INT was added to each well and the plate further incubated for at least half an hour to ensure adequate colour development. INT is a dehydrogenase activity detecting reagent, which is converted into an intensely coloured red-purple formazan by metabolically active micro-organisms. Inhibition of growth was indicated by a clear solution or a noticeable decrease in colour reaction. This value was taken as the MIC of the sample. The experiments were conducted twice.

[5] = system: Escherichia coli (clinical strain); assay: MIC by serial two-fold microdilution; format: cell-based; conditions: 24 h
Method: as §1, §3

[6] = system: Staphylococcus aureus (ATCC 29213); assay: MIC by serial two-fold microdilution; format: cell-based; conditions: ATCC29213, 24 h
Method: as §1, §3

[7] = system: Escherichia coli (ATCC 25922); assay: Antibacterial TLC bioautography; format: cell-based; conditions: E. coli
Description: (§4) The compounds in the crude extract and fractions, as well as the purified compounds were developed as described above but the bioautograms were sprayed with respective cultures. After development, the TLC plates were dried overnight in a stream of cold air and sprayed with an actively growing concentrated suspension of strains of either Staphylococcus aureus (ATCC 29213), Salmonella enterica subsp. enterica var. Enteritidis (S. Enteritidis ATCC 13076) or Escherichia coli (ATCC 25922). The plates were dried and incubated overnight at 37°C in closed, sterile, humidified plastic containers to allow growth of the bacteria on the plates. After incubation, the plates were sprayed with a sterile 2 mg/ml solution of p-iodonitrotetrazolium (INT, Sigma-Aldrich) salt and incubated for a further 1 h. The presence of clear zones on the chromatogram after the incubation period indicated inhibition of growth as the INT is metabolised to a coloured formazan product by the actively growing cells ([11]). The retention factors of the bands of inhibition were calculated.

[8] = system: Staphylococcus aureus (ATCC 29213); assay: Antibacterial TLC bioautography; format: cell-based; conditions: S. aureus
Description: as §4

15-LOX = target: T1, 15-LOX (Glycine max, UniProt P08170); assay: biochemical
T1 construct: purchased Sigma Aldrich, Germany
T1 sequence (P08170 1-839): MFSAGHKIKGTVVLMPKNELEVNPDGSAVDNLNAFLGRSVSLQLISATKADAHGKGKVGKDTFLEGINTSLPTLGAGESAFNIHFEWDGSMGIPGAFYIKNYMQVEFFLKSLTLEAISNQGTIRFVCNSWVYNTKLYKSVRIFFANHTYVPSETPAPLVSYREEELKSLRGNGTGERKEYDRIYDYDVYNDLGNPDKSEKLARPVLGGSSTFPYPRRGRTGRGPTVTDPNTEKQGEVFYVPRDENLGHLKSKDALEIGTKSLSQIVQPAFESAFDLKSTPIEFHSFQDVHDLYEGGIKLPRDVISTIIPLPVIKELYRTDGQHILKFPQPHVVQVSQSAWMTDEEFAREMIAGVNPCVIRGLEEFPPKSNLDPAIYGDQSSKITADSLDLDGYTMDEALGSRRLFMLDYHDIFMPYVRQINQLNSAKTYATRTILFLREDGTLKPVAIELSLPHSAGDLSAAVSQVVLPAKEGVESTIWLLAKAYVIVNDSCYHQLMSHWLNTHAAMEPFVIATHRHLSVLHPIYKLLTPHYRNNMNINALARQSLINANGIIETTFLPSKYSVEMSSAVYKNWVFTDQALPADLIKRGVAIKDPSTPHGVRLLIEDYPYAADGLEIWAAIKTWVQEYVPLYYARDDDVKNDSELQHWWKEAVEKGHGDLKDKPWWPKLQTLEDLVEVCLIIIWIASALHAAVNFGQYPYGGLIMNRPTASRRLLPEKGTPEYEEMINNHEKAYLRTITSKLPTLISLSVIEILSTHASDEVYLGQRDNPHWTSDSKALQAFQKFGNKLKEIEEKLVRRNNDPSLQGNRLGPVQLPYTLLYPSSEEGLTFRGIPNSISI
Method: Lipoxygenase (LOX) activity of the samples was determined spectrophotometrically according to published methods ([17], [18]). LOX inhibition was determined spectrophotometrically based on the formation of the complex Fe3+/xylenol orange as described by Pinto et al. ([19]). Briefly, 20 μl of Tris-HCl buffer (pH 7.4) was added to all wells of the 96-well-microplates. This was followed by the addition of 20 μl of the fractions (1 or 0.5 mg/ml) in the first row of the plate which was serially diluted. […] After the serial dilution, 40 μl of the lipoxygenase enzyme (Sigma Aldrich, Germany) was added to each well and the plates were incubated at room temperature 25°C for 5 min. After incubation, 40 μl of linoleic acid (final concentration, 140 μM) prepared in Tris-HCl buffer (50 mM, pH 7.4) was added to the well (except for the blanks). The plates were incubated at 25°C for 20 min in the dark. After incubation, 100 μl of freshly prepared ferrous oxidation–xylenol orange (FOX) reagent [sulfuric acid (30 mM), xylenol orange (100 μM), iron (II) sulphate (100 μM) in methanol/water (9:1)] was added to all wells. The plates were further incubated at 25°C for 30 min in the dark, 40 μl of linoleic acid was then added to the blanks. The absorbance was measured at 560 nm. […] The experiments were conducted twice.

in vitro = conditions: monkey
Method: (§5) The cytotoxic effect of the fractions and the isolated compounds was determined using an in vitro assay with Vero monkey kidney cells ([15]). The growth medium used was Minimal Essential Medium (MEM, Whitehead Scientific) supplemented with 0.1% gentamicin (Virbac) and 5% foetal calf serum (Highveld Biological). The cells were seeded at a density of 10 000 cells/per well in 96-well-microtitre plates. The plates were incubated at 37°C in a 5% CO2 incubator in a humidified environment for 24 h to allow cell attachment.
(§6) After incubation, the medium was aspirated and replaced with fresh MEM. The fractions/compounds (100 μl) of varying concentrations were added to the wells containing cells. The anticancer compound doxorubicin (Pfizer Laboratories) was used as a positive control. A suitable blank control with equivalent concentrations of fresh medium was also included and the plates were further incubated for 48 h in a CO2 incubator. Subsequently, the medium in each well was aspirated from the cells, which were washed with phosphate-buffered saline (PBS) and fresh medium was then added to each well. A 30 μl aliquot of MTT (5 mg/ml in PBS) was added to each well and the plates were incubated at 37°C for 4 h. The medium was then aspirated from wells and 50 μl DMSO was added to each well to solubilise the formed formazan crystals. The absorbance was measured on a BioTek Synergy microtitre plate reader at 570 nm. Cell growth inhibition for each extract was expressed in terms of LC50 values. […] The cytotoxicity assay was repeated thrice.

[9] = system: S. Enteritidis ATCC 13076; assay: Antibacterial TLC bioautography; format: cell-based, Salmonella enterica subsp. enterica var. Enteritidis
Description: as §4

[10] = system: Salmonella Enteritidis (ATCC 13076); assay: MIC by serial two-fold microdilution; format: cell-based, Salmonella enterica subsp. enterica var. Enteritidis; conditions: Salmonella enterica, 24 h
Method: as §1, §2

Method for Vero monkey kidney cells: as §5, §6

Compound | DPPH IC50 (DPPH free radical assay) | DPPH IC50 obtained after log transformation of data (DPPH free radical assay) | ABTS IC50 [1] | ABTS IC50 obtained after log transformation of data [1] | MIC [4] | MIC [5] | MIC [6] | CC50 at 48 h (in vitro) | other results
O=C1O[C@H]([C@@H](O)CO)C(O)=C1O [Ascorbic acid, ascorbic acid] | 1.97 ± 0.21 µg/mL | 2.45 μg/ml | 1.90 ± 0.07 µg/mL | 2.45 μg/ml | – | – | – | – | –
O=c1cc(-c2ccc(O)c(O)c2)oc2cc(O)cc(O)c12 [Compound 1, luteolin] | 5.92 ± 0.64^a μg/ml | – | 8.17 ± 0.80^a μg/ml | – | 156 mg/L (≈ 545 µM) | 156 mg/L (≈ 545 µM) | 625 mg/L (≈ 2180 µM) | 92.9 ± 1.7 mg/L (≈ 325 µM) | MIC ([2]; Escherichia coli, three ATCC strains and E. coli clinical strain, read-out: MIC values over the tested strains): > 100 mg/L; antibacterial activity class ([2]; all the tested bacterial strains): weak (values >625 μg/ml indicate weak activity); antioxidant activity in bioautography (DPPH bleaching) [3]: antioxidant activity; antibacterial activity in bioautography [7]: active; antibacterial activity in bioautography [8]: active; IC50 (15-LOX): 25.8 µM; cytotoxicity class (Vero monkey kidney cells): moderate; antibacterial activity in bioautography [9]: active
COc1cccc2c1C(=O)c1c(O)c3c(c(O)c1C2=O)C[C@@](O)(C(=O)CO)C[C@@H]3O[C@H]1C[C@H](N)[C@H](O)[C@H](C)O1 [Doxorubicin, doxorubicin, reference compound] | – | – | – | – | – | – | – | 9 ± 1.28 mg/L (≈ 16.6 µM) | –
CNC(C)C1CCC(N)C(OC2C(N)CC(N)C(OC3OCC(C)(O)C(NC)C3O)C2O)O1 (stereo not drawn) [Gentamicin, reference compound] | – | – | – | – | 20 mg/L (≈ 41.9 µM) | 20 mg/L (≈ 41.9 µM) | 20 mg/L (≈ 41.9 µM) | – | MIC [10]: 20 mg/L (≈ 41.9 µM)
Cc1c(C)c2c(c(C)c1O)CCC(C)(C(=O)O)O2 (stereo not drawn) [Trolox] | 3.19 ± 0.32 µg/mL | 4.02 μg/ml | 2.21 ± 0.30 µg/mL | 2.76 μg/ml | – | – | – | – | –
